Measurements as given in PubChem BioAssay AID248 (DTP/NCI, 2004).
“And” between values parts separate entries of the source, which are not always exact repeats. Equal entries are not always repeated. Inconclusive results and toxic doses are left out.

Test system: L1210 leukemia ip in BDF1 mice, survival T/C
Experiment: NCI In Vivo Anticancer Drug Screen. Data for tumor model L1210 Leukemia (intraperitoneal) in B6D2F1 (BDF1) mice
Conditions: endpoint: mean survival time, higher = longer survival
Method in brief: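 Tumor was transplanted into mice, which were then dosed with test compound or vehicle alone. Survival was recorded for each group, and the treated figure was expressed relative to the control figure.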

[1] = dose: 100.0 mg/kg/injection, schedule: Q01DX001 (ip), vehicle: saline
[2] = dose: 200.0 mg/kg/injection, schedule: Q01DX001 (ip), vehicle: saline
[3] = dose: 400.0 mg/kg/injection, schedule: Q01DX001 (ip), vehicle: saline
[4] = dose: 50.0 mg/kg/injection, schedule: Q01DX009 (ip), vehicle: saline with Tween-80
[5] = dose: 100.0 mg/kg/injection, schedule: Q01DX001 (ip), vehicle: saline with Tween-80
[6] = dose: 100.0 mg/kg/injection, schedule: Q04DX003 (ip), vehicle: saline with Tween-80
[7] = dose: 200.0 mg/kg/injection, schedule: Q01DX001 (ip), vehicle: saline with Tween-80
[8] = dose: 200.0 mg/kg/injection, schedule: Q04DX003 (ip), vehicle: saline with Tween-80
[9] = dose: 400.0 mg/kg/injection, schedule: Q01DX001 (ip), vehicle: saline with Tween-80
[10] = dose: 100.0 mg/kg/injection, schedule: Q04DX003 (ip), vehicle: saline
[11] = dose: 100.0 mg/kg/injection, schedule: Q01DX001 (ip), vehicle: steriod suspending solution
[12] = dose: 400.0 mg/kg/injection, schedule: Q01DX001 (ip), vehicle: steriod suspending solution
[13] = dose: 200.0 mg/kg/injection, schedule: Q04DX003 (ip), vehicle: saline
[14] = dose: 400.0 mg/kg/injection, schedule: Q04DX003 (ip), vehicle: saline
[15] = dose: 50.0 mg/kg/injection, schedule: Q01DX001 (ip), vehicle: carboxymethylcellulose (CMC)
[16] = dose: 100.0 mg/kg/injection, schedule: Q01DX001 (ip), vehicle: carboxymethylcellulose (CMC)
[17] = dose: 200.0 mg/kg/injection, schedule: Q01DX001 (ip), vehicle: carboxymethylcellulose (CMC)

CCCCCCCCCC(=O)OCC1OC(=O)C(C)N(C)C(=O)CN(C)C(=O)C2C(=O)CC(C)N2C(=O)C(C(C)C)NC(=O)C1NC(=O)c1c2nc3c(C(=O)NC4C(=O)NC(C(C)C)C(=O)N5C(C)CC(OC(=O)CCCCCCCCC)C5C(=O)N(C)CC(=O)N(C)C(C(C)C)C(=O)OC4C)ccc(C)c3oc-2c(C)c(=O)c1N (stereo not drawn)
T/C (dose: 0.2 mg/kg/injection, schedule: Q01DX009 (ip), vehicle: Klucel (hydroxypropylcellulose) (HPC)): 92 % of control | T/C (dose: 0.4 mg/kg/injection, schedule: Q01DX009 (ip), vehicle: Klucel (hydroxypropylcellulose) (HPC)): 94 % of control | T/C (dose: 0.6 mg/kg/injection, schedule: Q04DX003 (ip), vehicle: Klucel (hydroxypropylcellulose) (HPC)): 97 % of control | T/C (dose: 0.8 mg/kg/injection, schedule: Q01DX009 (ip), vehicle: Klucel (hydroxypropylcellulose) (HPC)): 96 % of control | T/C (dose: 1.2 mg/kg/injection, schedule: Q04DX003 (ip), vehicle: Klucel (hydroxypropylcellulose) (HPC)): 95 % of control | T/C (dose: 1.6 mg/kg/injection, schedule: Q01DX001 (ip), vehicle: Klucel (hydroxypropylcellulose) (HPC)): 92 % of control | T/C (dose: 1.6 mg/kg/injection, schedule: Q01DX009 (ip), vehicle: Klucel (hydroxypropylcellulose) (HPC)): 92 % of control | T/C (dose: 2.4 mg/kg/injection, schedule: Q04DX003 (ip), vehicle: Klucel (hydroxypropylcellulose) (HPC)): 90 % of control | T/C (dose: 3.2 mg/kg/injection, schedule: Q01DX001 (ip), vehicle: Klucel (hydroxypropylcellulose) (HPC)): 92 % of control | T/C (dose: 3.2 mg/kg/injection, schedule: Q01DX009 (ip), vehicle: Klucel (hydroxypropylcellulose) (HPC)): 89 % of control | T/C (dose: 4.8 mg/kg/injection, schedule: Q04DX003 (ip), vehicle: Klucel (hydroxypropylcellulose) (HPC)): 91 % of control | T/C (dose: 6.4 mg/kg/injection, schedule: Q01DX001 (ip), vehicle: Klucel (hydroxypropylcellulose) (HPC)): 91 % of control | T/C (dose: 9.6 mg/kg/injection, schedule: Q04DX003 (ip), vehicle: Klucel (hydroxypropylcellulose) (HPC)): 87 % of control | T/C (dose: 12.8 mg/kg/injection, schedule: Q01DX001 (ip), vehicle: Klucel (hydroxypropylcellulose) (HPC)): 89 % of control

COC(=O)C1(C)COP(=O)(N2CC2)OC1 (stereo not drawn)
T/C [1]: 101 % of control | T/C [2]: 106 % of control | T/C [3]: 95 % of control

CCOc1ccc(NC(=O)CCCCCCCCC(=O)Nc2ccc(OCC)cc2)cc1
T/C [4]: 98 % of control | T/C [5]: 96 % of control | T/C (dose: 100.0 mg/kg/injection, schedule: Q04DX002 (ip), vehicle: saline with Tween-80): 95 % of control and 110 % of control | T/C [6]: 88 % of control | T/C [7]: 91 % of control | T/C (dose: 200.0 mg/kg/injection, schedule: Q04DX002 (ip), vehicle: saline with Tween-80): 100 % of control and 89 % of control | T/C [8]: 96 % of control | T/C [9]: 88 % of control | T/C (dose: 400.0 mg/kg/injection, schedule: Q01DX009 (ip), vehicle: saline with Tween-80): 100 % of control and 108 % of control | T/C (dose: 400.0 mg/kg/injection, schedule: Q04DX002 (ip), vehicle: saline with Tween-80): 94 % of control and 97 % of control | T/C (dose: 400.0 mg/kg/injection, schedule: Q04DX003 (ip), vehicle: saline with Tween-80): 91 % of control

CCCCCCCCCCCCCCCC1=NN(c2ccccc2)C(=O)C1NC(=O)O (stereo not drawn)
T/C (dose: 100.0 mg/kg/injection, schedule: Q04DX003 (ip), vehicle: Klucel (hydroxypropylcellulose) (HPC)): 107 % of control | T/C (dose: 200.0 mg/kg/injection, schedule: Q04DX003 (ip), vehicle: Klucel (hydroxypropylcellulose) (HPC)): 97 % of control | T/C (dose: 400.0 mg/kg/injection, schedule: Q04DX003 (ip), vehicle: Klucel (hydroxypropylcellulose) (HPC)): 98 % of control

Cc1ccc(Nc2ncnc3nc[nH]c23)cc1CN(CCO)CCO
T/C [1]: 101 % of control | T/C [2]: 101 % of control | T/C [3]: 95 % of control

CCOC(=O)NC#N (tested in a mixture with another compound)
T/C (dose: 10.0 mg/kg/injection, schedule: Q01DX001 (ip), vehicle: saline): 98 % of control | T/C (dose: 20.0 mg/kg/injection, schedule: Q01DX001 (ip), vehicle: saline): 102 % of control | T/C (dose: 40.0 mg/kg/injection, schedule: Q01DX001 (ip), vehicle: saline): 102 % of control

[Cl][Pt+2][Cl].[NH-]c1ccc(Cl)cc1[NH-]
T/C (dose: 12.5 mg/kg/injection, schedule: Q04DX003 (ip), vehicle: saline): 178 % of control | T/C (dose: 25.0 mg/kg/injection, schedule: Q04DX003 (ip), vehicle: saline): 113 % of control | T/C [10]: 105 % of control and 108 % of control | T/C (dose: 800.0 mg/kg/injection, schedule: Q04DX003 (ip), vehicle: saline): 103 % of control

Nc1[nH]nc2nc(-c3ccc(Cl)cc3)cnc12
T/C [4]: 104 % of control | T/C (dose: 100.0 mg/kg/injection, schedule: Q01DX009 (ip), vehicle: saline with Tween-80): 101 % of control | T/C [6]: 95 % of control | T/C (dose: 200.0 mg/kg/injection, schedule: Q01DX009 (ip), vehicle: saline with Tween-80): 98 % of control | T/C [8]: 95 % of control

O=C(O)/C=C\C(=O)Nc1ccc2c(c1)OCO2
T/C (dose: 100.0 mg/kg/injection, schedule: Q01DX009 (ip), vehicle: Klucel (hydroxypropylcellulose) (HPC)): 98 % of control | T/C (dose: 200.0 mg/kg/injection, schedule: Q01DX009 (ip), vehicle: Klucel (hydroxypropylcellulose) (HPC)): 94 % of control | T/C (dose: 400.0 mg/kg/injection, schedule: Q01DX009 (ip), vehicle: Klucel (hydroxypropylcellulose) (HPC)): 91 % of control

O=C1CCCN1Cl
T/C [5]: 96 % of control | T/C [7]: 96 % of control | T/C [9]: 96 % of control

CC(C)[CH2][Sn]([CH2]C(C)C)([CH2]C(C)C)[C](C)(C)C
T/C (dose: 100.0 mg/kg/injection, schedule: Q04DX002 (ip), vehicle: saline): 94 % of control | T/C (dose: 200.0 mg/kg/injection, schedule: Q04DX002 (ip), vehicle: saline): 90 % of control | T/C (dose: 400.0 mg/kg/injection, schedule: Q04DX002 (ip), vehicle: saline): 100 % of control

CCOC(=O)OC(C#N)c1ccccc1 (stereo not drawn)
T/C (dose: 12.5 mg/kg/injection, schedule: Q01DX009 (ip), vehicle: saline with Tween-80): 93 % of control | T/C (dose: 25.0 mg/kg/injection, schedule: Q01DX009 (ip), vehicle: saline with Tween-80): 94 % of control

CC12CCC3c4ccc(O)c(N)c4CCC3C1CCC2=O (stereo not drawn)
T/C (dose: 100.0 mg/kg/injection, schedule: Q01DX001 (ip), vehicle: Klucel (hydroxypropylcellulose) (HPC)): 102 % of control | T/C (dose: 200.0 mg/kg/injection, schedule: Q01DX001 (ip), vehicle: Klucel (hydroxypropylcellulose) (HPC)): 102 % of control | T/C (dose: 400.0 mg/kg/injection, schedule: Q01DX001 (ip), vehicle: Klucel (hydroxypropylcellulose) (HPC)): 101 % of control

OC(c1ccccc1)(c1ccccc1)C1C(Cc2ccccc2)C1Cc1ccccc1 (stereo not drawn)
T/C [11]: 110 % of control | T/C (dose: 200.0 mg/kg/injection, schedule: Q01DX001 (ip), vehicle: steriod suspending solution): 112 % of control | T/C [12]: 104 % of control

O=S(=O)(O)CCN(CCO)CCO
T/C (dose: 100.0 mg/kg/injection, schedule: Q01DX009 (ip), vehicle: saline): 98 % of control | T/C [10]: 97 % of control | T/C (dose: 200.0 mg/kg/injection, schedule: Q01DX009 (ip), vehicle: saline): 101 % of control | T/C [13]: 101 % of control | T/C (dose: 400.0 mg/kg/injection, schedule: Q01DX009 (ip), vehicle: saline): 109 % of control | T/C [14]: 94 % of control

N#CCCN/N=C\c1ccc2c(c1)OCO2
T/C (dose: 50.0 mg/kg/injection, schedule: Q01DX001 (ip), vehicle: saline): 95 % of control | T/C [1]: 97 % of control | T/C [2]: 95 % of control | T/C [3]: 95 % of control

Cc1ccc2ccccc2n1
T/C [10]: 91 % of control | T/C [13]: 93 % of control | T/C [14]: 98 % of control

N#CC1C(=O)N=C(c2ccccc2)CC1c1ccccc1 (stereo not drawn)
T/C [5]: 86 % of control | T/C [7]: 96 % of control | T/C [9]: 104 % of control

CNS(=O)(=O)c1c(C)cccc1CC(=O)c1ccccc1
T/C [11]: 96 % of control | T/C [12]: 94 % of control

CC12CC3CC(C)(C1)CC(O)(C3)C2
T/C [15]: 101 % of control | T/C [16]: 98 % of control | T/C [17]: 92 % of control

CCC(CC)(CCN(C)C)c1ccccc1
T/C [15]: 98 % of control | T/C [16]: 98 % of control | T/C [17]: 104 % of control

Cc1ccc(N=C=S)cc1F
T/C (dose: 75.0 mg/kg/injection, schedule: Q01DX001 (ip), vehicle: other): 95 % of control
